1 compound from patent US12187706B2, “NLRP3 modulators” (INNATE TUMOR IMMUNITY, INC., priority 2019, dated 2025) can be followed below.

The experiment deals with T1, human TLR7 (Homo sapiens, UniProt Q9NYK1).
T1 construct: host or cells: human HEK-Blue cells with NF-kB/AP1-inducible SEAP reporter
T1 sequence (Q9NYK1 27-1049): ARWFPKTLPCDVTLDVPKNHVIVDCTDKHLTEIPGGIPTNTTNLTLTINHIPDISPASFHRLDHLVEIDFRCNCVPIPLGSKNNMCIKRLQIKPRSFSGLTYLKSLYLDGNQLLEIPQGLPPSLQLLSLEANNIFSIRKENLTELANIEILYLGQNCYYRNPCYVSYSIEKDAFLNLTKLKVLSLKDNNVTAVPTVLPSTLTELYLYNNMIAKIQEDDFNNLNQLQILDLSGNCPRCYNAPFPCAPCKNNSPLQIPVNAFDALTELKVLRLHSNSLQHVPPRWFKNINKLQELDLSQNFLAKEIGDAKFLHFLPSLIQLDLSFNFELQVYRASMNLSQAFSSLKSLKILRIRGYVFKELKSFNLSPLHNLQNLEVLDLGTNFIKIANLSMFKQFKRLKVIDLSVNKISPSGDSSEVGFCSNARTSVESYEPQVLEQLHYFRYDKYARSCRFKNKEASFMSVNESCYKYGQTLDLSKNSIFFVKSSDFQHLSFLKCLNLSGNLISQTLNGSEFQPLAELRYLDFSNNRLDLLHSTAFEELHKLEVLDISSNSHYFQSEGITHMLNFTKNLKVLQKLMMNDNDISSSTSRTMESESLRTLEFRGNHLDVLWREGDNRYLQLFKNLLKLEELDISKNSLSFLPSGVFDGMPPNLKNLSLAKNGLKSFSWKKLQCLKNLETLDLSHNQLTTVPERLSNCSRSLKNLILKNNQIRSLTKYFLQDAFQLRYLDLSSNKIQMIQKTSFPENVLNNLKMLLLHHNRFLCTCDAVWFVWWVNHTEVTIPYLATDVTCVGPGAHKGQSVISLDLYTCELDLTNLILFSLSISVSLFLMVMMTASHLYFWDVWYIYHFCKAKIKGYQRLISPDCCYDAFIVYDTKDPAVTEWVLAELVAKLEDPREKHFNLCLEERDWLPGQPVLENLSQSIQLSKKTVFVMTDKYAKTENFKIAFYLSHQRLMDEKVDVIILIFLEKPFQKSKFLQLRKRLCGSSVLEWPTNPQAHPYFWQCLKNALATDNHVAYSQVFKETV
Nature of the experiment: In vitro human TLR7 reporter assay (HEK-Blue, NF-kB/AP1-inducible SEAP). The experiment is classed as cell-based. Particulars: at 50 μM. The method, then:
In Vitro Human TLR7 and TLR8 Binding Reporter Assays Logarithmically-growing human HEK-Blue cells co-expressing a TLR7 or TLR8 gene and a NF-kB/AP1-inducible SEAP (secreted embryonic alkaline phosphatase; […] Cellular SEAP production is measured using an Envision plate reader instrument thirty minutes after adding freshly-made Quanti-Blue reagent (prepared by following manufacturer instructions; Invivogen, San Diego, CA) to the HEK-Blue TLR Nf-kB-SEAP cell reactions. All EC50 values (half-maximal effective concentration) are determined using proprietary data analysis software.
(A reporter such as luciferase makes a cellular process visible.)

`Nc1nc(OCCO)c2ccc(-c3ccn[nH]3)cc2n1` [Example 4, 2-((2-amino-7-(1H-pyrazol-3-yl)quinazolin-4-yl)oxy)ethan-1-ol] came in with a TLR7 agonist activity of under 50%.
